Results reported in PubChem BioAssay AID256 (DTP/NCI, 2004).
Several values for one entry are separate records, joined by “and”; a condition that tells them apart may be missing. Identical values can stand only once. Toxic doses and inconclusive results are not listed.

Test system: CD2F1 mice, L1210 leukemia ip, survival T/C
Experiment: NCI In Vivo Anticancer Drug Screen. Data for tumor model L1210 Leukemia (intraperitoneal) in CD2F1 (CDF1) mice
Settings: higher = longer survival
How it was run: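 Activity against a transplanted murine tumor was judged by comparing the compound group with a vehicle group. The outcome in the treated animals was divided by that in the controls.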

[1] = endpoint: mean survival time, dose: 12.5 mg/kg/injection, schedule: Q04DX003 (ip), vehicle: saline with Tween-80
[2] = endpoint: mean survival time, dose: 25.0 mg/kg/injection, schedule: Q04DX003 (ip), vehicle: saline with Tween-80
[3] = endpoint: mean survival time, dose: 50.0 mg/kg/injection, schedule: Q04DX003 (ip), vehicle: saline with Tween-80
[4] = endpoint: mean survival time, dose: 100.0 mg/kg/injection, schedule: Q04DX003 (ip), vehicle: saline with Tween-80
[5] = endpoint: mean survival time, dose: 200.0 mg/kg/injection, schedule: Q04DX003 (ip), vehicle: saline with Tween-80
[6] = endpoint: mean survival time, dose: 400.0 mg/kg/injection, schedule: Q04DX003 (ip), vehicle: saline with Tween-80
[7] = endpoint: mean survival time, dose: 50.0 mg/kg/injection, schedule: Q01DX009 (ip), vehicle: saline with Tween-80
[8] = endpoint: mean survival time, dose: 100.0 mg/kg/injection, schedule: Q01DX009 (ip), vehicle: saline with Tween-80
[9] = endpoint: mean survival time, dose: 6.25 mg/kg/injection, schedule: Q01DX009 (ip), vehicle: saline
[10] = endpoint: mean survival time, dose: 50.0 mg/kg/injection, schedule: Q01DX009 (ip), vehicle: saline
[11] = endpoint: mean survival time, dose: 100.0 mg/kg/injection, schedule: Q01DX009 (ip), vehicle: saline
[12] = endpoint: mean survival time, dose: 200.0 mg/kg/injection, schedule: Q01DX009 (ip), vehicle: saline
[13] = endpoint: mean survival time, dose: 25.0 mg/kg/injection, schedule: Q01DX009 (ip), vehicle: saline with Tween-80
[14] = endpoint: mean survival time, dose: 50.0 mg/kg/injection, schedule: Q01DX009 (ip), vehicle: Klucel (hydroxypropylcellulose) (HPC)
[15] = endpoint: mean survival time, dose: 100.0 mg/kg/injection, schedule: Q01DX009 (ip), vehicle: Klucel (hydroxypropylcellulose) (HPC)

SMILES: c1ccc2c(c1)cc1cnc3cccc4ccc2c1c43
- T/C (endpoint: mean survival time, dose: 12.5 mg/kg/injection, schedule: Q04DX002 (ip), vehicle: saline with Tween-80): 96 % of control
- T/C (endpoint: mean survival time, dose: 25.0 mg/kg/injection, schedule: Q04DX002 (ip), vehicle: saline with Tween-80): 101 % of control
- T/C (endpoint: mean survival time, dose: 50.0 mg/kg/injection, schedule: Q04DX002 (ip), vehicle: saline with Tween-80): 90 % of control

SMILES: Cc1ccccc1Nc1c2ccccc2nc2ccccc12
- T/C [1]: 98 % of control
- T/C [2]: 104 % of control
- T/C [3]: 87 % of control

SMILES: COC(=O)C1CCCC(=O)C1C(=O)OC (stereo unspecified)
- T/C (endpoint: mean survival time, dose: 100.0 mg/kg/injection, schedule: Q01DX009 (ip), vehicle: other): 95 % of control
- T/C (endpoint: mean survival time, dose: 200.0 mg/kg/injection, schedule: Q01DX009 (ip), vehicle: other): 101 % of control
- T/C (endpoint: mean survival time, dose: 400.0 mg/kg/injection, schedule: Q01DX009 (ip), vehicle: other): 92 % of control

SMILES: CCOC1OC(C(O)CO)C(O)C(O)C1O (stereo unspecified)
- T/C (endpoint: mean survival time, dose: 100.0 mg/kg/injection, schedule: Q04DX003 (ip), vehicle: saline): 101 % of control
- T/C (endpoint: mean survival time, dose: 200.0 mg/kg/injection, schedule: Q04DX003 (ip), vehicle: saline): 103 % of control
- T/C (endpoint: mean survival time, dose: 400.0 mg/kg/injection, schedule: Q04DX003 (ip), vehicle: saline): 101 % of control

SMILES: CCOC(=O)C(C(C)=O)C(=O)CCc1ccccc1 (stereo unspecified)
- T/C [4]: 99 % of control
- T/C [5]: 100 % of control
- T/C [6]: 103 % of control

SMILES: CC1CCCN(N=Nc2ccccc2-c2nc(N)c3ccccc3n2)C1 (stereo unspecified)
- T/C (endpoint: mean survival time, dose: 100.0 mg/kg/injection, schedule: Q04DX002 (ip), vehicle: Klucel (hydroxypropylcellulose) (HPC)): 88 % of control
- T/C (endpoint: mean survival time, dose: 200.0 mg/kg/injection, schedule: Q04DX002 (ip), vehicle: Klucel (hydroxypropylcellulose) (HPC)): 92 % of control
- T/C (endpoint: mean survival time, dose: 400.0 mg/kg/injection, schedule: Q04DX002 (ip), vehicle: Klucel (hydroxypropylcellulose) (HPC)): 95 % of control

SMILES: CN[C@H]1CCc2cc(OC)c(OC)c(OC)c2-c2ccc(SC)c(=O)cc21
- T/C (endpoint: mean survival time, dose: 12.5 mg/kg/injection, schedule: Q01DX001 (ip), vehicle: Klucel (hydroxypropylcellulose) (HPC)): 104 % of control
- T/C (endpoint: mean survival time, dose: 25.0 mg/kg/injection, schedule: Q01DX001 (ip), vehicle: Klucel (hydroxypropylcellulose) (HPC)): 106 % of control
- T/C (endpoint: mean survival time, dose: 50.0 mg/kg/injection, schedule: Q01DX001 (ip), vehicle: Klucel (hydroxypropylcellulose) (HPC)): 102 % of control

SMILES: CC(C)C1NC(=O)C2CCCN2C1=O (stereo unspecified)
- T/C (endpoint: mean survival time, dose: 100.0 mg/kg/injection, schedule: Q01DX009 (ip), vehicle: saline sonified): 98 % of control
- T/C (endpoint: mean survival time, dose: 200.0 mg/kg/injection, schedule: Q01DX009 (ip), vehicle: saline sonified): 93 % of control
- T/C (endpoint: mean survival time, dose: 400.0 mg/kg/injection, schedule: Q01DX009 (ip), vehicle: saline sonified): 96 % of control

SMILES: COc1cc(/C=C(\C#N)c2ccc(Cl)cc2)ccc1OCc1ccccc1
- T/C [7]: 95 % of control
- T/C [8]: 90 % of control
- T/C [4]: 89 % of control
- T/C (endpoint: mean survival time, dose: 200.0 mg/kg/injection, schedule: Q01DX009 (ip), vehicle: saline with Tween-80): 90 % of control
- T/C [5]: 89 % of control
- T/C [6]: 89 % of control

SMILES: O=C(O)CCN(Cl)Cl
- T/C (endpoint: mean survival time, dose: 1.56 mg/kg/injection, schedule: Q01DX009 (ip), vehicle: saline): 97 % of control
- T/C (endpoint: mean survival time, dose: 3.13 mg/kg/injection, schedule: Q01DX009 (ip), vehicle: saline): 102 % of control
- T/C [9]: 100 % of control

SMILES: CN(C)CCNc1ccc(CO)c2sc3ccc(O)cc3c(=O)c12
- T/C (endpoint: median survival time, dose: 25.0 mg/kg/injection, schedule: Q01DX005 (ip), vehicle: saline with Tween-80): 107 % of control
- T/C (endpoint: median survival time, dose: 72.0 mg/kg/injection, schedule: Q01DX005 (ip), vehicle: saline with Tween-80): 155 % of control
- T/C (endpoint: median survival time, dose: 100.0 mg/kg/injection, schedule: Q01DX005 (ip), vehicle: saline with Tween-80): 212 % of control
- T/C (endpoint: median survival time, dose: 120.0 mg/kg/injection, schedule: Q01DX005 (ip), vehicle: saline with Tween-80): 183 % of control
- T/C (endpoint: median survival time, dose: 333.33 mg/kg/injection, schedule: Q01DX005 (ip), vehicle: saline with Tween-80): 112 % of control
- T/C (endpoint: median survival time, dose: 400.0 mg/kg/injection, schedule: Q01DX005 (ip), vehicle: saline with Tween-80): 113 % of control and 97 % of control
- T/C (endpoint: median survival time, dose: 555.55 mg/kg/injection, schedule: Q01DX005 (ip), vehicle: saline with Tween-80): 111 % of control

SMILES: Cc1ccc(NC(=O)COc2cc(Cl)c(Cl)cc2Cl)cc1C
- T/C [4]: 102 % of control
- T/C [5]: 93 % of control
- T/C [6]: 96 % of control

SMILES: CCOC(=O)NC(=O)/C=C/N1CCCC1
- T/C [10]: 102 % of control
- T/C [11]: 97 % of control
- T/C [12]: 94 % of control

SMILES: CNCCOc1ccc(Cl)cc1
- T/C [13]: 94 % of control
- T/C [2]: 96 % of control
- T/C [7]: 96 % of control
- T/C [3]: 113 % of control
- T/C [8]: 96 % of control
- T/C [4]: 96 % of control and 97 % of control

SMILES: O=C1C(c2ccccc2)=[N+]([O-])[N+]([O-])=C1c1ccccc1
- T/C [14]: 97 % of control
- T/C [15]: 97 % of control
- T/C (endpoint: mean survival time, dose: 200.0 mg/kg/injection, schedule: Q01DX009 (ip), vehicle: Klucel (hydroxypropylcellulose) (HPC)): 101 % of control

SMILES: Oc1ccc2ccccc2c1Cc1ccccc1
- T/C [4]: 101 % of control
- T/C [5]: 97 % of control
- T/C [6]: 98 % of control

SMILES: CC1C2CCC(C2)C1N (stereo unspecified)
- T/C [10]: 99 % of control
- T/C [11]: 99 % of control
- T/C [12]: 99 % of control

SMILES: CCOC(=O)/C(C#N)=C(\C)c1ccccc1
- T/C (endpoint: mean survival time, dose: 37.5 mg/kg/injection, schedule: Q01DX009 (ip), vehicle: saline with Tween-80): 95 % of control
- T/C (endpoint: mean survival time, dose: 75.0 mg/kg/injection, schedule: Q01DX009 (ip), vehicle: saline with Tween-80): 97 % of control

SMILES: CC(=O)O[C@@H]1[C@@H](O)C2=C3[C@]4(C)[C@@H]1C(C)(C)C(=O)C[C@@H]4[C@]3(O)[C@H](OC(C)=O)[C@@]1(C[C@@H]1C)C2=O
- T/C (endpoint: mean survival time, dose: 3.12 mg/kg/injection, schedule: Q01DX009 (ip), vehicle: distilled water + Tween-80): 102 % of control
- T/C (endpoint: mean survival time, dose: 3.12 mg/kg/injection, schedule: Q01DX009 (ip), vehicle: saline): 96 % of control
- T/C (endpoint: mean survival time, dose: 6.25 mg/kg/injection, schedule: Q01DX009 (ip), vehicle: distilled water + Tween-80): 105 % of control
- T/C [9]: 102 % of control
- T/C (endpoint: mean survival time, dose: 12.5 mg/kg/injection, schedule: Q01DX009 (ip), vehicle: distilled water + Tween-80): 100 % of control
- T/C (endpoint: mean survival time, dose: 12.5 mg/kg/injection, schedule: Q01DX009 (ip), vehicle: saline): 104 % of control
- T/C (endpoint: mean survival time, dose: 25.0 mg/kg/injection, schedule: Q01DX009 (ip), vehicle: distilled water + Tween-80): 100 % of control
- T/C (endpoint: mean survival time, dose: 25.0 mg/kg/injection, schedule: Q01DX009 (ip), vehicle: saline): 104 % of control
- T/C (endpoint: mean survival time, dose: 50.0 mg/kg/injection, schedule: Q01DX009 (ip), vehicle: distilled water + Tween-80): 103 % of control
- T/C [10]: 108 % of control
- T/C (endpoint: mean survival time, dose: 100.0 mg/kg/injection, schedule: Q01DX009 (ip), vehicle: distilled water + Tween-80): 96 % of control
- T/C [11]: 111 % of control

SMILES: COC(=O)CSc1nn(C2OC(COC(=O)c3ccccc3)C(OC(=O)c3ccccc3)C2OC(=O)c2ccccc2)c(=O)[nH]c1=O (stereo unspecified)
- T/C (endpoint: mean survival time, dose: 12.5 mg/kg/injection, schedule: Q01DX005 (ip), vehicle: distilled water + Tween-80): 92 % of control
- T/C (endpoint: mean survival time, dose: 25.0 mg/kg/injection, schedule: Q01DX005 (ip), vehicle: distilled water + Tween-80): 101 % of control
- T/C (endpoint: mean survival time, dose: 50.0 mg/kg/injection, schedule: Q01DX005 (ip), vehicle: distilled water + Tween-80): 93 % of control
- T/C (endpoint: mean survival time, dose: 100.0 mg/kg/injection, schedule: Q01DX005 (ip), vehicle: distilled water + Tween-80): 90 % of control
- T/C (endpoint: mean survival time, dose: 200.0 mg/kg/injection, schedule: Q01DX005 (ip), vehicle: distilled water + Tween-80): 88 % of control

SMILES: COC1C(CO)OC(n2cnc3c(=S)nc(N)[nH]c32)C1O (stereo unspecified)
- T/C (endpoint: mean survival time, dose: 12.5 mg/kg/injection, schedule: Q01DX009 (ip), vehicle: Klucel (hydroxypropylcellulose) (HPC)): 98 % of control and 101 % of control
- T/C (endpoint: mean survival time, dose: 25.0 mg/kg/injection, schedule: Q01DX009 (ip), vehicle: Klucel (hydroxypropylcellulose) (HPC)): 101 % of control and 106 % of control
- T/C [14]: 101 % of control and 106 % of control
- T/C [15]: 123 % of control
- T/C (endpoint: mean survival time, dose: 400.0 mg/kg/injection, schedule: Q01DX009 (ip), vehicle: Klucel (hydroxypropylcellulose) (HPC)): 100 % of control

SMILES: NC(=O)c1c(N)sc2c1CCCC2
- T/C (endpoint: mean survival time, dose: 6.25 mg/kg/injection, schedule: Q01DX009 (ip), vehicle: saline with Tween-80): 96 % of control
- T/C (endpoint: mean survival time, dose: 6.25 mg/kg/injection, schedule: Q04DX003 (ip), vehicle: saline with Tween-80): 107 % of control
- T/C (endpoint: mean survival time, dose: 12.5 mg/kg/injection, schedule: Q01DX009 (ip), vehicle: saline with Tween-80): 93 % of control
- T/C [1]: 102 % of control
- T/C [13]: 95 % of control
- T/C [2]: 100 % of control
